# Results taken from PMC13330650 (Matrix biology : journal of the International Society for …, 2025).
# Substitutions are numbered along the chain they refer to. “Also recorded” adds a separate entry of the source.
# Key:
# [1] = tested on: O-glycans in LNCaP UGDH WT (OE) and S316D cells; assay: metabolic O-glycan labeling (Ac4GalNaz click chemistry) with 4-MU; format: cell-based, human; conditions: 10 μM 4-MU, 72 hours
# [2] = tested on: LNCaP cell lines (VC, UGDH WT (OE), UGDH S316D, UGDH S316A); assay: proliferation assay (resazurin conversion to resorufin); format: cell-based, human
# Procedure: (§1) Cell treatments were conducted as follows, except where described. To stimulate phosphorylation of UGDH at S316 for Western blot analysis, cells were cultured in replete medium until they reached 70 % confluence. Seventy-two hours prior to harvest, medium was replaced with phenol-red-free media containing 5 % CS-FBS to reduce androgen signaling. Twenty-four hours prior to harvest, medium was replaced with phenol-red-free media containing 10 % CS-FBS plus 10 nM DHT or vehicle control. EGF (20ng/mL) or vehicle control were added to cell media twenty minutes prior to harvest. For assessment of UGDH pS316 in these conditions with kinase inhibition, assays were repeated with kinase inhibitors added alongside EGF, DHT, and controls. Kinase inhibitor treatment concentrations were optimized based on published efficacy ranges and the following were used for all assays: BIX02565 (20 μM), PF4708671 (20 μM), GSK650394 (40 μM). Proliferation assays were performed with 10 μM enzalutamide (enz) added as described below, and 3D assays were performed with 1 μM enz added during seeding as described. For click chemistry quantification of glycans in cells treated with 4-MU, 10 μM was added to cell medium during the addition of the click labeling reagents.
# For basal growth, 5 × 10^4 cells of each line were cultured in 24-well plates in standard steroid-replete media. Cell proliferation was measured daily for three days in replicate plates incubated for 2 h with media containing 10 % resazurin, after which fluorescence of the reduced product, resorufin, was measured (560Ex/590Em) in a microplate reader. To assess the impacts of kinase inhibition on cell growth, assays were repeated in the presence of inhibitors individually and in combination. For androgen-mediated cell growth with kinase inhibition, cells were cultured in 24-well plates in standard steroid-replete media. After 12 h, media were first removed and replaced with media containing 5 % CS-FBS (androgen-depleted conditions) for 48 h, and then media were removed and replaced with media containing 10 % CS-FBS plus 10 nM DHT and kinase inhibitors for another 48 h. Cell proliferation was measured daily as described above beginning when cells were switched to androgen free conditions. For enz treatments, cells were cultured in 24-well plates in standard steroid-replete media. After 12 h, media were replaced with replete media containing vehicle or 10 μM enz and vehicle or kinase inhibitors. For assays with kinase inhibition, cell proliferation was measured daily as described above beginning when cells were switched to the respective treatment condition. Cell numbers were extrapolated from fluorescence values by comparison to a standard curve for each respective cell line, and cell count at the end of the experiment was normalized to cell count on day zero directly following media replacement. All data were plotted for four technical replicates of experiments that were repeated three times. Statistical significance was assessed by one-way ANOVA followed by Tukey’s post hoc test for multiple comparisons.
# [3] = tested on: UGDH pS316 in LNCaP cells; assay: western blot of UGDH pS316 (anti-p-Akt substrate) in LNCaP whole cell lysates; format: cell-based, human; conditions: LNCaP cells; EGF 20ng/mL; inhibitor 20 μM
# Source text: To validate the phosphorylation of UGDH by RSK2, S6K1, and SGK1 in a cellular context, we used a western analysis that capitalized on the general reactivity of an antibody generated against the phosphorylated AGC kinase motif (RxRxxpS/T) for targets of Akt, which is also a member of this kinase family. To validate the assay, we first compared phosphorylation of S316 in the in vitro kinase assay using purified recombinant UGDH. […] We further validated using serum starved LNCaP cells treated with EGF to stimulate activity of RSK2 [26] and S6K1 [27], or DHT to activate SGK1 [28], prior to lysate harvest.
# as §1
# Media were aspirated from cells, and a portion kept for analysis of HA content. Cells were washed with 2 mL cold 1x PBS, scraped into 1 mL of cold 1xPBS, pelleted by centrifugation, and lysed with 1x RIPA buffer supplemented with 1x protease inhibitor cocktail. For analysis of phosphoprotein expression, 1x phosphatase inhibitor was added to the lysis buffer. Bradford assay was performed to quantify protein content of cell lysates. Blots were imaged and quantified through fluorescence emission using the Odyssey Infrared Imaging System (LI-COR Biosciences, Lincoln, NE, USA). β-tubulin or GAPDH were used to normalize protein expression. Each analysis was plotted for three technical replicates of a representative experiment that was repeated at least three times. Statistical significance was assessed by one-way ANOVA followed by Tukey’s post hoc test for multiple comparisons.
# [4] = tested on: LNCaP cell lines (VC, UGDH WT (OE), UGDH S316D, UGDH S316A); assay: tumoroid (anchorage independent spheroid) growth assay; format: cell-based, human
# UGDH WT = molecular target: T1, UGDH WT (Homo sapiens, UniProt O60701); assay: steady state kinetics of purified recombinant UGDH WT; format: biochemical; conditions: cofactor NAD+ varied
# T1 construct: six-histidine; made in house; host or cells: E. coli BL21(DE3)
# T1 sequence (O60701 1-494): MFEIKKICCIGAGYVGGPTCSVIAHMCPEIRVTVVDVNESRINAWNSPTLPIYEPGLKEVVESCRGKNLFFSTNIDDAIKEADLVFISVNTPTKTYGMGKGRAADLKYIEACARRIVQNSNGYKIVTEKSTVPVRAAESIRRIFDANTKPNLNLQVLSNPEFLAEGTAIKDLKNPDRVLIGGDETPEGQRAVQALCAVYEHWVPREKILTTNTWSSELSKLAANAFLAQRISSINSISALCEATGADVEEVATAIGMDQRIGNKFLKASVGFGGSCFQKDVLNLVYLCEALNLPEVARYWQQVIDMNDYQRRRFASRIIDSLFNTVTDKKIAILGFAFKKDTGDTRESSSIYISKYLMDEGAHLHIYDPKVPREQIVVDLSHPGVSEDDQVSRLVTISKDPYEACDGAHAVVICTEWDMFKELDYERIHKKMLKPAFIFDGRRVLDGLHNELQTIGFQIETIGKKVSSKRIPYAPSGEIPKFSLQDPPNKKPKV
# Procedure: (§2) Purified S316 mutants were compared to the UGDH WT enzyme using the following approaches as previously described. Enzymatic activity was evaluated by steady state kinetics in the presence and absence of the endogenous inhibitor UDP-Xylose to compare Michaelis constants and IC50 values. Intrinsic stability was assessed by thermal denaturation and quaternary structure was determined by size exclusion chromatography. Binding of UDP-Xylose to recombinant UGDH and mutants was measured by isothermal titration calorimetry using the MicroCal PEAQ-ITC (Malvern Panalytical). […] Binding heats were corrected for the heat of dilution and analyzed using the MicroCal PEAQ-ITC Analysis Software, employing a single-site binding model to determine Kd values.
# UGDH S316A = molecular target: T2, UGDH S316A (Homo sapiens, UniProt O60701, S316A); assay: steady state kinetics of purified recombinant UGDH S316A; format: biochemical; conditions: cofactor NAD+ varied
# T2 construct: six-histidine; made in house; host or cells: E. coli BL21(DE3)
# T2 sequence (O60701 1-494 S316A): T1 sequence (O60701 1-494) with S316A
# Procedure: as §2
# UGDH S316D = molecular target: T3, UGDH S316D (Homo sapiens, UniProt O60701, S316D); assay: steady state kinetics of purified recombinant UGDH S316D; format: biochemical; conditions: cofactor NAD+ varied
# T3 construct: six-histidine; made in house; host or cells: E. coli BL21(DE3)
# T3 sequence (O60701 1-494 S316D): T1 sequence (O60701 1-494) with S316D
# Procedure: as §2
smiles,measurement,setting,value
"Cc1cc(=O)oc2cc(O)ccc12 [4-MU, 4-methylumbelliferone]",O-glycan levels with 4-MU,[1]; UGDH S316D cell lines,this reversal was not observed
same,O-glycan levels with 4-MU,[1]; UGDH WT (OE) cells,significant reductions in O-linked glycans; also recorded: reversed the enhancement of O-glycan levels
C[C@@H]1CCNC(=O)c2cc3ccc(C(=O)Nc4nc5ccccc5n4CCCN(C)C)cc3n21 [BIX02565],cell death,"[2]; VC and UGDH S316A cells, BIX02565 20 μM",induced significant cell death
same,"cell number / proliferation, single kinase inhibitor","[2]; all lines, 3-day, inhibitor 20 μM, replete media",reduced cell number in all lines
same,EGF-stimulated p-UGDH band intensity,[3],significantly reduced
same,spheroid growth diminished,"[4]; UGDH WT (OE) and S316D expressing cells, RSK2 inhibitor BIX02565 20 μM",≈ 80%
same,medium and large spheroid growth,"[4]; VC and UGDH S316A cell lines, RSK2 inhibitor BIX02565 20 μM",almost completely suppressed
NC(=O)c1ccc[n+]([C@@H]2O[C@H](COP(=O)([O-])OP(=O)(O)OC[C@H]3O[C@@H](n4cnc5c(N)ncnc54)[C@H](O)[C@@H]3O)[C@@H](O)[C@H]2O)c1 [NAD+],Km,UGDH WT,530 ± 90 µM
same,NAD+ Vmax,UGDH WT,710±40 nmol/min/mg of protein
same,NAD+ Vmax,UGDH WT; listed as NAD^+,710 nmol/min/mg of protein
same,Km,UGDH S316A,380 ± 60 µM
same,NAD+ Vmax,UGDH S316A,490±20 nmol/min/mg of protein
same,NAD+ Vmax,UGDH S316A; listed as NAD^+,490 nmol/min/mg of protein
same,Km,UGDH S316D,330 ± 70 µM
same,NAD+ Vmax,UGDH S316D,230±20 nmol/min/mg of protein
same,NAD+ Vmax,UGDH S316D; listed as NAD^+,230 nmol/min/mg of protein
"CNC(=O)c1ccc(N2C(=S)N(c3ccc(C#N)c(C(F)(F)F)c3)C(=O)C2(C)C)cc1F [enz, enzalutamide]",growth in the presence of enz and S6K1 inhibitor,"[2]; UGDH S316D lines, 10 μM enz + PF4708671 20 μM",< 30 % of initial cell count
same,proliferation in the presence of enz alone,"[2]; UGDH WT and S316D cells, 10 μM enz",minimal detectable effect on proliferation; also recorded: continued to proliferate
same,"growth reduction, combined targeting of RSK2 with enz","[2]; UGDH WT and S316D, 10 μM enz + BIX02565 20 μM",≈ 20%
same,"growth, combined targeting of RSK2 with enz","[2]; VC and UGDH S316A lines, 10 μM enz + BIX02565 20 μM",eliminated growth
same,growth suppression by enz alone,"[2]; VC and UGDH S316A-expressing cells, 10 μM enz",≈ 40%
same,enz suppression of large spheroid growth,"[4]; UGDH WT (OE) and S316D expressing cells, 1 μM enz",sensitive
